The assay relates to c-Myc. In words: c-Myc immunofluorescence assay. In kind it is cell-based, human. Conditions: A549 cells, 24 hours, anti-c-Myc immunofluorescence. The protocol:
A549 human non-small cell lung carcinoma cells were treated for 24 hours with increasing compound concentration, cells were fixed and stained with a nuclei stain (DAPI) and anti-c-Myc fluorescent antibody. The c-Myc signal was quantified by image analysis, and data was exported and analyzed using TIBCO Spotfire® (TIBCO Corporation). Dose response curves were generated and fitted with logaristic regression to calculate potency (EC50 values). Potency values are presented in Table 2 for all compounds and are shown for selected compounds (FIG. 3).
A549 cells were grown in 384-wells plates (Perkin Elmer, Cat. 6057300) for 48 hours, treated with compounds and then fixed for 20 min in 4% paraformaldehyde. After that permeabilization was done using 0.1% Triton X-100 in PBS for 20 min. Primary anti-c-Myc antibody (Abcam, ab32072) staining was performed for 90 min at room temperature. Cells then were washed twice with PBS and incubated with secondary antibody (Abcam, ab150075) for 90 min at room temperature. Nuclei were stained with DAPI for 10 min and washed twice with PBS.
Cell images were taken with Operetta (Perkin Elmer, USA), a wide-field fluorescence microscope at 20× magnification. After acquisition, the images were transferred to Columbus software (Perkin-Elmer) for image analysis. In Columbus, cells were identified by their nucleus, using the “Find Nuceli” module and cytoplasm was detected based on the secondary antibody channel. Subsequently, the fluorescent signal was enumerated in the identified cell region. Then data was exported to a data analysis and visualization software, Tibco Spotfire, USA.
With `COc1ccc(-c2noc(N3CCC(C(=O)NCc4cncnc4)CC3)n2)cc1` [Compound 162, 1-(3-(4-methoxyphenyl)-1,2,4-oxadiazol-5-yl)-N-(pyrimidin-5-ylmethyl)piperidine-4-carboxamide], the “Myc Efficacy (−LogEC50)” value is “+ (+ >3 and <5)”.
The result for `O=C(NCc1cccnc1)C1CCN(c2nc(-c3ccc(Cl)cc3)no2)CC1` [Compound 163, 1-(3-(4-chlorophenyl)-1,2,4-oxadiazol-5-yl)-N-(pyridin-3-ylmethyl)piperidine-4-carboxamide] reads “+ (+ >3 and <5)”.
With `O=C(C1CCN(c2nc(-c3ccccc3Cl)no2)CC1)N1CCOCC1` [Compound 164, (1-(3-(2-chlorophenyl)-1,2,4-oxadiazol-5-yl)piperidin-4-yl)(morpholino)methanone], the “Myc Efficacy (−LogEC50)” value is reported as “− (− ≤3)”.
The result for `O=C(C1CCN(c2nc(-c3cccc(Cl)c3)no2)CC1)N1CCOCC1` [Compound 165, (1-(3-(3-chlorophenyl)-1,2,4-oxadiazol-5-yl)piperidin-4-yl)(morpholino)methanone] reads “+ (+ >3 and <5)”; that for `O=C(C1CCN(c2nc(-c3ccc(Cl)cc3)no2)CC1)N1CCOCC1` [Compound 166, (1-(3-(4-chlorophenyl)-1,2,4-oxadiazol-5-yl)piperidin-4-yl)(morpholino)methanone], “+ (+ >3 and <5)”; that for `Cc1ccc(CN2CC[C@@H](CNC(=O)C3CCN(c4nc(-c5ccc(Cl)cc5)no4)CC3)C2)cc1` [Compound 167, (S)-1-(3-(4-chlorophenyl)-1,2,4-oxadiazol-5-yl)-N-((1-(4-methylbenzyl)pyrrolidin-3-yl)methyl)piperidine-4-carboxamide], “+++ (+++ ≥6)”.
The result for `Cc1ccc(CN2CC[C@H](CNC(=O)C3CCN(c4nc(-c5ccc(Cl)cc5)no4)CC3)C2)cc1` [Compound 168, (R)-1-(3-(4-chlorophenyl)-1,2,4-oxadiazol-5-yl)-N-((1-(4-methylbenzyl)pyrrolidin-3-yl)methyl)piperidine-4-carboxamide] reads “++ (++ ≥5 and <6)”; that for `COc1ccc(-c2n[nH]c(N3CCC(C(=O)NCC4CCN(Cc5ccc(C)cc5)C4)CC3)n2)cc1` (centres unmarked) [Compound 169, 1-(3-(4-methoxyphenyl)-1H-1,2,4-triazol-5-yl)-N-((1-(4-methylbenzyl)pyrrolidin-3-yl)methyl)piperidine-4-carboxamide], “+ (+ >3 and <5)”.
For `Cc1ccc(CN2CCC(CNC(=O)C3CCN(c4nc(-c5ccc(O)cc5)no4)CC3)C2)cc1` (centres unmarked) [Compound 170, 1-(3-(4-hydroxyphenyl)-1,2,4-oxadiazol-5-yl)-N-((1-(4-methylbenzyl)pyrrolidin-3-yl)methyl)piperidine-4-carboxamide], the “Myc Efficacy (−LogEC50)” value is “+ (+ >3 and <5)”.
The same measure for `COc1ccc(-c2cccc(N3CCC(C(=O)NCC4CCN(Cc5ccc(C)cc5)C4)CC3)c2)cc1` (centres unmarked) [Compound 171, 1-(4′-methoxy-[1,1′-biphenyl]-3-yl)-N-((1-(4-methylbenzyl)pyrrolidin-3-yl)methyl)piperidine-4-carboxamide]: “++ (++ ≥5 and <6)”.
The same measure for `COc1ccc(-c2noc(C3CCC(C(=O)NCC4CCN(Cc5ccccc5)C4)CC3)n2)cc1` (centres unmarked) [Compound 172, (1s,4s)-N-((1-benzylpyrrolidin-3-yl)methyl)-4-(3-(4-methoxyphenyl)-1,2,4-oxadiazol-5-yl)cyclohexane-1-carboxamide]: “++ (++ ≥5 and <6)”; for `COc1ccc(-c2noc([C@H]3CC[C@@H](C(=O)O)CC3)n2)cc1` [Compound 173, (1s,4s)-4-(3-(4-methoxyphenyl)-1,2,4-oxadiazol-5-yl)cyclohexane-1-carboxylic acid]: “+ (+ >3 and <5)”; for `COc1ccc(-c2noc(C3CCC(C(=O)NCC4CCN(Cc5ccccc5)C4)CC3)n2)cc1` (centres unmarked) [Compound 174, (1r,4r)-N-((1-benzylpyrrolidin-3-yl)methyl)-4-(3-(4-methoxyphenyl)-1,2,4-oxadiazol-5-yl)cyclohexane-1-carboxamide]: “++ (++ ≥5 and <6)”.
For `COc1ccc(-c2noc([C@H]3CC[C@H](C(=O)O)CC3)n2)cc1` [Compound 175, (1r,4r)-4-(3-(4-methoxyphenyl)-1,2,4-oxadiazol-5-yl)cyclohexane-1-carboxylic acid], the “Myc Efficacy (−LogEC50)” value is “+ (+ >3 and <5)”.
The result for `COc1ccc(-c2noc(C3CCC(C(=O)NCC4CC(=O)N(Cc5ccccc5)C4)CC3)n2)cc1` (centres unmarked) [Compound 176, (1s,4s)-N-((1-benzyl-5-oxopyrrolidin-3-yl)methyl)-4-(3-(4-methoxyphenyl)-1,2,4-oxadiazol-5-yl)cyclohexane-1-carboxamide] reads “+ (+ >3 and <5)”.
For the compound `COc1ccc(-c2noc(C3CCC(C(=O)NCC4CC(=O)N(Cc5ccccc5)C4)CC3)n2)cc1` (centres unmarked) [Compound 177, (1r,4r)-N-((1-benzyl-5-oxopyrrolidin-3-yl)methyl)-4-(3-(4-methoxyphenyl)-1,2,4-oxadiazol-5-yl)cyclohexane-1-carboxamide], the “Myc Efficacy (−LogEC50)” value is “++ (++ ≥5 and <6)”.
Regarding `O=C(NCc1cccnc1)C1CCN(c2nc(-c3ccc(O)cc3)no2)CC1` [Compound 178, 1-(3-(4-hydroxyphenyl)-1,2,4-oxadiazol-5-yl)-N-(pyridin-3-ylmethyl)piperidine-4-carboxamide], the “Myc Efficacy (−LogEC50)” value was “+ (+ >3 and <5)”.
The result for `COc1ccccc1-c1noc(N2CCC(C(=O)NCc3cccnc3)CC2)n1` [Compound 179, 1-(3-(2-methoxyphenyl)-1,2,4-oxadiazol-5-yl)-N-(pyridin-3-ylmethyl)piperidine-4-carboxamide] reads “+ (+ >3 and <5)”; that for `COc1cccc(-c2noc(N3CCC(C(=O)NCc4cccnc4)CC3)n2)c1` [Compound 180, 1-(3-(3-methoxyphenyl)-1,2,4-oxadiazol-5-yl)-N-(pyridin-3-ylmethyl)piperidine-4-carboxamide], “+ (+ >3 and <5)”; that for `COc1ccc(-c2cc(N3CCC(C(=O)NCc4cccnc4)CC3)on2)cc1` [Compound 181, 1-(3-(4-methoxyphenyl)isoxazol-5-yl)-N-(pyridin-3-ylmethyl)piperidine-4-carboxamide], “+ (+ >3 and <5)”.
In the case of `O=C(C1CCN(c2nc(-c3ccc(O)cc3)no2)CC1)N1CCOCC1` [Compound 182, (1-(3-(4-hydroxyphenyl)-1,2,4-oxadiazol-5-yl)piperidin-4-yl)(morpholino)methanone], the “Myc Efficacy (−LogEC50)” value was “+ (+ >3 and <5)”.
For `COc1ccc(-c2cc(N3CCC(C(=O)N4CCOCC4)CC3)on2)cc1` [Compound 183, (1-(3-(4-methoxyphenyl)isoxazol-5-yl)piperidin-4-yl)(morpholino)methanone], the “Myc Efficacy (−LogEC50)” value was “+ (+ >3 and <5)”.
The result for `CC(=O)Nc1ccc(-c2noc(N3CCC(C(=O)NCC4CCN(Cc5ccc(C)cc5)C4)CC3)n2)cc1` (centres unmarked) [Compound 184, 1-(3-(4-acetamidophenyl)-1,2,4-oxadiazol-5-yl)-N-((1-(4-methylbenzyl)pyrrolidin-3-yl)methyl)piperidine-4-carboxamide] reads “+ (+ >3 and <5)”; that for `COc1ccc(-c2noc(N3CCC(C(=O)NCC4CCN(Cc5ccc(C)cc5)C4)CC3)n2)nc1` (centres unmarked) [Compound 185, 1-(3-(5-methoxypyridin-2-yl)-1,2,4-oxadiazol-5-yl)-N-((1-(4-methylbenzyl)pyrrolidin-3-yl)methyl)piperidine-4-carboxamide], “++ (++ ≥5 and <6)”.
The result for `Cc1ccc(CN2CCC(CNC(=O)C3CCN(c4nc(-c5cccc(C)c5)no4)CC3)C2)cc1` (centres unmarked) [Compound 186, N-((1-(4-methylbenzyl)pyrrolidin-3-yl)methyl)-1-(3-(m-tolyl)-1,2,4-oxadiazol-5-yl)piperidine-4-carboxamide] reads “++ (++ ≥5 and <6)”; that for `COc1cccc(-c2noc(N3CCC(C(=O)NCC4CCN(Cc5ccc(C)cc5)C4)CC3)n2)c1` (centres unmarked) [Compound 187, 1-(3-(3-methoxyphenyl)-1,2,4-oxadiazol-5-yl)-N-((1-(4-methylbenzyl)pyrrolidin-3-yl)methyl)piperidine-4-carboxamide], “++ (++ ≥5 and <6)”.
The same measure for `Cc1ccc(CN2CCC(CNC(=O)C3CCN(c4nc(-c5ccccc5C)no4)CC3)C2)cc1` (centres unmarked) [Compound 188, N-((1-(4-methylbenzyl)pyrrolidin-3-yl)methyl)-1-(3-(o-tolyl)-1,2,4-oxadiazol-5-yl)piperidine-4-carboxamide]: “++ (++ ≥5 and <6)”.
For the compound `COc1ccccc1-c1noc(N2CCC(C(=O)NCC3CCN(Cc4ccc(C)cc4)C3)CC2)n1` (centres unmarked) [Compound 189, 1-(3-(2-methoxyphenyl)-1,2,4-oxadiazol-5-yl)-N-((1-(4-methylbenzyl)pyrrolidin-3-yl)methyl)piperidine-4-carboxamide], the “Myc Efficacy (−LogEC50)” value was “+ (+ >3 and <5)”.
The result for `COc1ccc(-c2noc(N3CCN(C(=O)N4CCC(OC)CC4)CC3)n2)cc1` [Compound 190, (4-(3-(4-methoxyphenyl)-1,2,4-oxadiazol-5-yl)piperazin-1-yl)(4-methoxypiperidin-1-yl)methanone] reads “+ (+ >3 and <5)”.

The values are drawn from patent US12344600B2, “c-Myc mRNA translation modulators and uses thereof in the treatment of cancer” (Anima Biotech Inc., priority 2022, dated 2025).
